The text below walks through data of patent publication US8013006B2.

For data set [1], the system named is HCV replicon. Briefly: microbe, parasite or virus in culture. Format: cell-based.
The subject of data set [2] is wild-type poliovirus. Format: cell-based. Particulars: Hela cells, MOI 0.1, one day; for WT-PV CPE (1 μM)*: 1 μM compound; for WT-PV CPE (10 μM)*: 10 μM compound; for WT-PV CPE (100 μM) *: 100 μM compound.
Data set [3] deals with cap-dependent translation. The data set can be described thus: Western blot of Fluc reporter protein in pLuc cells. In kind it is cell-based, human. Particulars: 20 hours.
Where [4] appears, read: Replicon IC50 values are determined by firefly luciferase signal, bicistronic replicon, 2 days, read-out: Replicon IC5Os.
The mark [5] stands for this setting: Hepatitis C virus, 48 h, read-out: Replicon IC5Os μM.

Where two headings read alike, the source gives them in different places.

As for `COc1ccc(-n2cc(C#N)c3ccc(OC)cc32)cc1` [Compound 4], the IC50 in data set [1] (setting [4]) is greater than 2 µM. For the same compound, in data set [2], the “WT-PV CPE (1 μM)*” value was determined as 1, the “WT-PV CPE (10 μM)*” value was 2 and the “WT-PV CPE (100 μM) *” value worked out at 3.
For `CCn1cc(C#N)c2ccc(OC(C)C)cc21` [Compound 10] the same measures were greater than 2 µM, 2, 2 and 3.
For `CCn1c(-c2ccc(OC)cc2)c(C#N)c2ccc(OC)cc21` [Compound 19] the same measures were greater than 2 µM, 1, 2 and 3.
Taken in the same sequence, the figures for `COc1ccc2c(C#N)c(C)n(-c3ccc4c(c3)OCO4)c2c1` [Compound 24] were 0.5 to 2 µM, 2, 2 and 3.
The compound `CCCn1c(-c2ccc(NS(=O)(=O)C3CC3)cc2)c(C#N)c2ccc(OC(F)F)cc21` [Compound 827] displayed a melting point of 189 to 191 °C. Also, in data set [1] (setting [5]), the IC50 was less than 0.5 µM.
Taken in the same sequence, the figures for `CCOc1ccc(-c2c(C#N)c3ccc(NS(C)(=O)=O)cc3n2CC)cc1` [Compound 834] were 179 to 180 °C and 0.5 to 2 µM.
`CCCn1c(-c2ccc(NC(=O)NCCc3ccccc3)cc2)c(C#N)c2ccc(OC)cc21` [Compound 848] had a melting point of 193 to 194 °C. For the same compound, the IC50 in data set [1] (setting [5]) fell in the range of 0.5 to 2 µM.
Consider `CCCn1c(-c2ccc(NS(=O)(=O)CCCCl)cc2)c(C#N)c2ccc(OC)cc21` [Compound 850], for which the melting point was in the range of 179 to 180 °C. Moreover, the IC50 in data set [1] (setting [5]) fell in the range of 0.5 to 2 µM.
Taken in the same sequence, the figures for `CCCn1c(-c2ccc(NS(=O)(=O)C3CC3)cc2)c(C#N)c2ccc(OC)cc21` [Compound 851] were 186 to 187 °C and 0.5 to 2 µM.
For `CCn1c(-c2ccc(NC(=O)C3CCC3)cc2)c(C#N)c2cc(OC)ccc21` [Compound 859] the same measures were 191 to 192 °C and 0.5 to 2 µM.
Take `COc1ccc(C[C@H](N)C(=O)N[C@H]2[C@@H](O)[C@H](n3cnc4c(N(C)C)ncnc43)O[C@@H]2CO)cc1` [puromycin]: the “luciferase reporter protein level (cap-dependent), Western blot” value in data set [3] is “inhibited”.
